Target: Proto-oncogene tyrosine-protein kinase Src (Homo sapiens, UniProt P12931)
Assay: Inhibition of SRC using polyE4Y as substrate

Chain of Proto-oncogene tyrosine-protein kinase Src (P12931 2-536 limits assumed): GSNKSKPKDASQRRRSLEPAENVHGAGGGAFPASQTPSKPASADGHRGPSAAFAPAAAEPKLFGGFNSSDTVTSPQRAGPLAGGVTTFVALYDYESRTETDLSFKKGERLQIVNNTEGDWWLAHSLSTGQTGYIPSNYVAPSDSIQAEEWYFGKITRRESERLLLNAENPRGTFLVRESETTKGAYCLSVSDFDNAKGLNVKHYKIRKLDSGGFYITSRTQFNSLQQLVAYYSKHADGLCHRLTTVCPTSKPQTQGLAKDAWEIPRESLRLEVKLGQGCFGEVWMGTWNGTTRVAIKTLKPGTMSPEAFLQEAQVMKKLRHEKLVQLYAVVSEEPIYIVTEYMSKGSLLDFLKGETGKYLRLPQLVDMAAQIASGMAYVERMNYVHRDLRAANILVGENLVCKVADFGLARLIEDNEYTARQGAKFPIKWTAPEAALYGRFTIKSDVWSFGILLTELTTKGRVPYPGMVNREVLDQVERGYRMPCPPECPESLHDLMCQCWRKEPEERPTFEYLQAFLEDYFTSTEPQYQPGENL

Compound | IC50
CC[C@H](C)[C@H](NC(=O)[C@H](CS)NC(C)=O)C(=O)N[C@@H](Cc1ccc(O)cc1)C(=O)N[C@@H](CCCCN)C(=O)N[C@@H](Cc1ccc(NS(C)(=O)=O)cc1)C(=O)N[C@@H](Cc1ccc(O)cc1)C(=O)O | > 700 µM
CC[C@H](C)[C@H](NC(=O)[C@H](CS)NC(C)=O)C(=O)N[C@@H](Cc1ccc(O)cc1)C(=O)N[C@@H](CCCCN)C(=O)N[C@@H](Cc1ccc(O)cc1)C(=O)N[C@@H](Cc1ccc(N)cc1)C(=O)O | > 700 µM
